Reference: patent US20240148821A1, “PHARMACEUTICAL USE OF CYCLIC PEPTIDE COMPOUND” (CHUGAI SEIYAKU KABUSHIKI KAISHA, priority 2021, published 2024)
Bridge positions count the residues as written; N and C are the ends. Square brackets hold non-standard residues; d marks the D form. Peptide text beside a SMILES is read from it. * marks the point of attachment. hPhe(3-Cl-4-CF3) = N[C@@H](CCc1ccc(C(F)(F)F)c(Cl)c1)C(=O)O; hPhe(3-F,4-CF3) = N[C@@H](CCc1ccc(C(F)(F)F)c(F)c1)C(=O)O; hPhe(4-CF3) = N[C@@H](CCc1ccc(C(F)(F)F)cc1)C(=O)O; NMePhe(4-Cl) = CN[C@@H](Cc1ccc(Cl)cc1)C(=O)O; NMeGly(cPent) = CN[C@H](C(=O)O)C1CCCC1; NMeCha = CN[C@@H](CC1CCCCC1)C(=O)O; NMeAhp(2) = CCCCC[C@H](NC)C(=O)O; NMeChg = CN[C@H](C(=O)O)C1CCCCC1; NMeF = CN[C@@H](Cc1ccccc1)C(=O)O; NMeI = CC[C@H](C)[C@H](NC)C(=O)O; NMeD = CN[C@@H](CC(=O)O)C(=O)O; NMeL = CN[C@@H](CC(C)C)C(=O)O; NMeV = CN[C@H](C(=O)O)C(C)C; d(β3hA) = C[C@@H](N)CC(=O)O; Azetidin(1-yl) = C1CN(*)C1; NMeS = CN[C@@H](CO)C(=O)O; Pip = O=C(O)[C@@H]1CCCCN1; Morpholide = C1CN(*)CCO1; NMeA = CN[C@@H](C)C(=O)O; Piperidide = C1CCN(*)CC1; Ac5c = NC1(C(=O)O)CCCC1; Aze = O=C(O)[C@@H]1CCN1; Aib = CC(C)(N)C(=O)O; Sar = CNCC(=O)O; Propyl = CCC*

Molecular target: protein-protein interaction between Kras and SOS1 (biotin-tagged human Kras loaded with GDP, His-tagged human SOS1) (Homo sapiens (Human), UniProt P01116, G12D)
Experiment: Protein-protein interaction inhibition between Kras and SOS1 (KrasG12D-SOS PPI) using AlphaScreen;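 also: kras produced in E. coli, Ni-coupled donor beads and streptavidin acceptor beads, excitation 680 nm with emission detected at 520–620 nm via singlet oxygen transfer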
Assay type: biochemical
Conditions: AlphaScreen; biotin-tagged human Kras loaded with GDP, His-tagged human SOS1; read-out: KRAS G12D-SOS PPI IC50

CC[C@H](C)[C@@H]1NC(=O)[C@H](C)N(C)C(=O)C[C@@H](C)NC(=O)[C@H](CC(C)C)N(C)C(=O)C(C)(C)NC(=O)[C@H](CC(C)C)N(C)C(=O)[C@H](CCc2ccc(C(F)(F)F)cc2)NC(=O)CN(C)C(=O)[C@H](CC2CCCCC2)N(C)C(=O)CN(C)C(=O)CN(C)C1=O [Compound 219] (cyclo([Aib][NMeL][d(β3hA)][NMeA]I[Sar][Sar][NMeCha][Sar][hPhe(4-CF3)][NMeL])) and CC[C@H](C)[C@@H]1NC(=O)[C@H](CC(C)C)N(C)C(=O)C[C@@H](C)NC(=O)[C@H](CC(C)C)N(C)C(=O)C(C)(C)NC(=O)[C@H](CC(C)C)N(C)C(=O)[C@H](CCc2ccc(C(F)(F)F)cc2)NC(=O)CN(C)C(=O)[C@H](Cc2ccc(Cl)cc2)N(C)C(=O)CN(C)C(=O)CN(C)C1=O [Compound 261] (cyclo([Aib][NMeL][d(β3hA)][NMeL]I[Sar][Sar][NMePhe(4-Cl)][Sar][hPhe(4-CF3)][NMeL])) are within 1.5-fold of each other in IC50: 73 nM for the first, 52 nM for the second.

Going from CC[C@H](C)[C@@H]1NC(=O)[C@H](C2CCCC2)N(C)C(=O)C[C@@H](C(=O)N2CCCCC2)N(C)C(=O)[C@H](C(C)C)N(C)C(=O)C2(CCCC2)NC(=O)[C@@H]2CCCN2C(=O)[C@H](CCc2ccc(C(F)(F)F)c(Cl)c2)NC(=O)CN(C)C(=O)[C@H](CC2CCCCC2)N(C)C(=O)[C@@H]2CCN2C(=O)[C@H](C)N(C)C1=O [Compound 225] ([NMeGly(cPent)]I[NMeA][Aze][NMeCha][Sar][hPhe(3-Cl-4-CF3)]P[Ac5c][NMeV][NMeD]-Piperidide; lactam N-11) to CC[C@H](C)[C@@H]1NC(=O)[C@H](CC(C)C)N(C)C(=O)C[C@@H](C(=O)N2CCCCC2)N(C)C(=O)[C@H](C2CCCCC2)N(C)C(=O)C2(CCCC2)NC(=O)[C@@H]2CCCN2C(=O)[C@H](CCc2ccc(C(F)(F)F)c(Cl)c2)NC(=O)CN(C)C(=O)[C@H](CC2CCCCC2)N(C)C(=O)[C@@H]2CCN2C(=O)[C@H](C)N(C)C1=O [Compound 249] ([NMeL]I[NMeA][Aze][NMeCha][Sar][hPhe(3-Cl-4-CF3)]P[Ac5c][NMeChg][NMeD]-Piperidide; lactam N-11), the IC50 falls from 15 nM to 1.6 nM (9.4-fold). The second is the more potent here.

CC[C@H](C)[C@@H]1NC(=O)[C@@H]2CCCCN2C(=O)C[C@@H](C)NC(=O)[C@H](CC(C)C)N(C)C(=O)C2(CCCC2)NC(=O)[C@@H]2CCCN2C(=O)[C@H](CCc2ccc(C(F)(F)F)cc2)NC(=O)CN(C)C(=O)[C@H](Cc2ccc(Cl)cc2)N(C)C(=O)CN(C)C(=O)CN(C)C1=O [Compound 227] (cyclo([Ac5c][NMeL][d(β3hA)][Pip]I[Sar][Sar][NMePhe(4-Cl)][Sar][hPhe(4-CF3)]P)) and CC[C@H](C)[C@@H]1NC(=O)[C@H](C)N(C)C(=O)C[C@@H](C)NC(=O)[C@H](CC(C)C)N(C)C(=O)[C@H](Cc2ccccc2)N(C)C(=O)[C@H](CC(C)C)NC(=O)[C@H](CCc2ccc(C(F)(F)F)cc2)NC(=O)CN(C)C(=O)[C@H](Cc2ccc(Cl)cc2)N(C)C(=O)CN(C)C(=O)CN(C)C1=O [Compound 271] (cyclo(I[Sar][Sar][NMePhe(4-Cl)][Sar][hPhe(4-CF3)]L[NMeF][NMeL][d(β3hA)][NMeA])) are within 1.5-fold of each other in IC50: 82 nM for the first, 65 nM for the second.

Compared with CCCOC[C@H]1C(=O)N(C)CC(=O)N[C@@H](CCc2ccc(C(F)(F)F)c(F)c2)C(=O)N2CCC[C@H]2C(=O)NC2(CCCC2)C(=O)N(C)[C@@H]([C@@H](C)CC)C(=O)N(C)[C@H](C(=O)N2CCCCC2)CC(=O)N(C)[C@@H](CC(C)C)C(=O)N[C@@H]([C@@H](C)CC)C(=O)N(C)[C@@H](C)C(=O)N2CC[C@H]2C(=O)N1C [Compound 236] ([NMeL]I[NMeA][Aze][NMeS](Propyl)[Sar][hPhe(3-F,4-CF3)]P[Ac5c][NMeI][NMeD]-Piperidide; lactam N-11), CC[C@H](C)[C@@H]1NC(=O)[C@H](CC(C)C)N(C)C(=O)C[C@@H](C(=O)N2CCC2)N(C)C(=O)[C@H](C(C)C)N(C)C(=O)C2(CCCC2)NC(=O)[C@@H]2CCCN2C(=O)[C@H](CCc2ccc(C(F)(F)F)c(Cl)c2)NC(=O)CN(C)C(=O)[C@H](CC2CCCCC2)N(C)C(=O)[C@@H]2CCN2C(=O)[C@H](C)N(C)C1=O [Compound 256] ([NMeL]I[NMeA][Aze][NMeCha][Sar][hPhe(3-Cl-4-CF3)]P[Ac5c][NMeV][NMeD]-{Azetidin(1-yl)}; lactam N-11) is 8.7-fold lower in IC50: 8.5 nM for the first, 0.98 nM for the second. The second is the more potent here.

CCCCC[C@H]1C(=O)N[C@@H]([C@@H](C)CC)C(=O)N[C@@H](C)C(=O)N2CC[C@H]2C(=O)N(C)[C@@H](CC2CCCCC2)C(=O)N(C)CC(=O)N[C@@H](CCc2ccc(C(F)(F)F)c(Cl)c2)C(=O)N2CCC[C@H]2C(=O)NC2(CCCC2)C(=O)N(C)[C@@H](C2CCCC2)C(=O)N(C)[C@H](C(=O)N2CCOCC2)CC(=O)N1C [Compound 263] ([NMeAhp(2)]IA[Aze][NMeCha][Sar][hPhe(3-Cl-4-CF3)]P[Ac5c][NMeGly(cPent)][NMeD]-Morpholide; lactam N-11) showed an IC50 of 2.9 nM.
